Measurements taken from ChEMBL document CHEMBL3603838, “Guanidinium compounds with sub-micromolar activities against Mycobacterium tuberculosis. Synthesis, characterization and biological evaluations” (Bioorg Med Chem, 2015).
In brackets after ≈: the same amount, converted by molar mass.

Columns and labels:
[1] = system: Mycobacterium tuberculosis; experiment: Antimycobacterial activity against isoniazid-resistant Mycobacterium tuberculosis MYC5165 after 6 days by MTT assay; type: functional, organism-based; details: MYC5165, 144 h
[2] = Selectivity index, ratio of CC50 for human MRC5 cells to MIC for isoniazid-resistant Mycobacterium tuberculosis MYC5165; type: toxicity, cell-based; details: read-out: Selectivity Index
[3] = system: Mycobacterium tuberculosis; experiment: Ratio of isoniazid MIC to compound MIC for isoniazid-resistant Mycobacterium tuberculosis MYC5165; type: functional
[4] = system: Mycobacterium tuberculosis; experiment: Ratio of CX1 MIC to compound MIC for isoniazid-resistant Mycobacterium tuberculosis MYC5165; type: functional
[5] = system: Mycobacterium tuberculosis; experiment: Ratio of streptomycin MIC to compound MIC for isoniazid-resistant Mycobacterium tuberculosis MYC5165; type: functional

SMILES | MIC [1] [µM] | selectivity ratio [2] | IC50 ([1]; read-out: IC50) [µM] | Ratio [3] | Ratio [4] | Ratio [5] | IC50 [1] [µM]
N=C(N)NCCc1cc2c(O)c(c1)Cc1cc(CCNC(=N)N)cc(c1O)Cc1cc(CCNC(=N)N)cc(c1O)Cc1cc(CCNC(=N)N)cc(c1O)C2 | 0.8 (≈ 0.612 µg/mL) | > 256 |  |  |  |  | 
N=C(N)NCCc1ccc(OCc2ccccc2COc2ccc(CCNC(=N)N)cc2)cc1.O=C(O)C(F)(F)F | 3.1 | 45 | 0.9 | 4 |  |  | 
N=C(N)NCCc1ccc(OCc2cccc(COc3ccc(CCNC(=N)N)cc3)c2)cc1.O=C(O)C(F)(F)F | 0.8 | 62 | 0.3 | 16 | 16 |  | 
N=C(N)NCCc1ccc(OCc2ccc(COc3ccc(CCNC(=N)N)cc3)cc2)cc1.O=C(O)C(F)(F)F | 0.8 | 38 | 0.2 | 60 | 16 |  | 
N=C(N)NCCc1ccc(OCc2cc(COc3ccc(CCNC(=N)N)cc3)cc(COc3ccc(CCNC(=N)N)cc3)c2)cc1.O=C(O)C(F)(F)F | 0.2 | 198 |  | >125 |  | 4 | 
N=C(N)NCCc1ccc(OCc2cc(COc3ccc(CCNC(=N)N)cc3)c(COc3ccc(CCNC(=N)N)cc3)cc2COc2ccc(CCNC(=N)N)cc2)cc1.O=C(O)C(F)(F)F | 0.1 | 377 | 0.03 | >125 |  |  | 
O=C(O)c1cn(C2CC2)c2cc(N3CCNCC3)c(F)cc2c1=O [CIPROFLOXACIN] | 2.5 (≈ 0.828 µg/mL) |  |  |  |  |  | 1.8
NNC(=O)c1ccncc1 [ISONIAZID] | 12.5 (≈ 1.71 µg/mL) | > 6 | 0.65 |  |  |  | 
CN[C@@H]1[C@H](O[C@H]2[C@H](O[C@H]3[C@H](O)[C@@H](O)[C@H](N=C(N)N)[C@@H](O)[C@@H]3N=C(N)N)O[C@@H](C)[C@]2(O)C=O)O[C@@H](CO)[C@H](O)[C@H]1O [STREPTOMYCIN] | 2.7 (≈ 1.57 µg/mL) |  |  |  |  |  | 
